According to PMC10860144, “Exploring the Dispersion and Electrostatic Components in Arene–Arene Interactions between Ligands and G4 DNA to Develop G4-Ligands” (Journal of Medicinal Chemistry, 2024):

Assays:
dsDNA (5'Cy5-ds26) = assay: MST with fluorescently labeled dsDNA; format: binding
Method: (§1) We next challenged the compounds’ G4 selectivity with a FRET melting competition assay using 5 (2 μM) and 27 (5 μM) with c-MYC Pu22 G4 DNA and increasing amounts of dsDNA (Figure 6D and Table S1). […] In addition, we investigated if we could detect any binding of the compounds to dsDNA using MST with a fluorescently labeled dsDNA (Table S1).
5′-Cy5 labeled G4 DNAs for this study were purchased from Eurofins Genomics. Stock solutions were prepared in water at 100 μM concentration. The sequences used are listed in Supporting Information Table S1. The G4 DNA sequences were folded in KCl buffer (10 mM phosphate, 100 mM KCl, pH 7.4) by heating at 95 °C for 5 min and then cooling to room temperature. All the experiments were performed in 10 mM phosphate pH 7.4, 100 mM KCl, and 0.05% Tween20. The labeled DNA concentration is held constant at 25 nM, and ligand concentration is varied depending on ligands Kd (16 1:3 dilutions). The samples were loaded into standard MST graded glass capillaries and initial fluorescence intensity of the capillary was measured using Monolith NT.115 (Nano Temper, Germany) with 20% LED power. The change in fluorescence with ligand’s concentrations were plotted in Excel and fitted through nonlinear equation to obtain the binding constants.

[1] = test system: c-MYC Pu22 G4 DNA in the presence of competitor dsDNA (ds26); assay: FRET melting competition assay with dsDNA (ds26); format: binding, human; conditions: 5 at 2 μM, 27 at 5 μM; 0–100 equiv ds26
Method: as §1
The FRET occurs between two dyes (5′-FAM as donor and 3′-TAMRA as acceptor) linked at both extremities of a DNA oligonucleotide. When the oligonucleotides are folded into G4 structures, the donor and acceptor are in proximity, which results in an energy transfer from the donor to the acceptor. This process can be detected by a reduction in the fluorescence emission of the donor. Fluorescence emission of the donor is recovered when the temperature increment triggers the thermal denaturation of the G4 structure. The experiments were performed in a Bio-Rad CFX96 real-time PCR device at temperatures from 10 to 95 °C at 1.5 °C/m heating rate using a 492 nm excitation wavelength and a 516 nm detection wavelength in 96-well plates. Each condition was tested in duplicate, and analysis of the data was carried out by using Excel and Origin 8 software. […] The stabilization (ΔTm) is calculated from comparison of Tm of the fluorescently labeled oligonucleotide in the presence or absence of the ligand.

c-MYC Pu22 G4 DNA = assay: 1H NMR titration with c-MYC Pu22 G4 DNA; format: binding, human; conditions: DNA 90 μM; 298 K
Text: To study the interactions of compounds 5 and 27 with G4 DNA in more detail, we performed a nuclear magnetic resonance (NMR) titration assay for both compounds with c-MYC Pu22 G4 DNA. In this assay, we monitored chemical shift alterations and the broadening of the well-defined imino protons from the G4 DNA located at 10–12 ppm in the NMR spectrum upon the addition of different compound concentrations. […] Although it is challenging to conclude the details of the binding interactions, the observed impact on the protons in the 3′ quartet for both compounds, especially compound 27, strongly implies the presence of an end-stacking type of interaction.
The G4 DNA stock solutions were prepared by folding 100 μM c-MYC Pu22 in 10 mM potassium phosphate buffer (pH = 7.4) and 35 mM KCl by heating at 95 °C for 10 min and cooling to ambient temperature overnight. 10% D2O was added to the DNA stock solutions, yielding a final DNA concentration of 90 μM. NMR samples were prepared by sequential addition of 5 or 27 from 2 or 10 mM DMSO-d6 stock solutions to 200 μL of the DNA solution which was then transferred to 3 mm NMR tubes. […] All spectra were recorded at 298 K on a Bruker 850 MHz Avance III HD spectrometer equipped with a 5 mm TCI cryoprobe. Excitation sculpting was used in the 1D 1H experiments, and 256 scans were recorded. Processing of spectra was performed in MestreNova 10.0.2.

| Structure (SMILES) | binding to dsDNA (MST) (dsDNA (5'Cy5-ds26)) | change in compound-induced thermal stability of c-MYC Pu22 G4 DNA with increasing dsDNA [1] | binding by NMR titration (imino protons) (c-MYC Pu22 G4 DNA) |
| --- | --- | --- | --- |
| Cc1cc(C)c2nc(Nc3nc(C)cc(NCCCN(C)C)n3)nc(C)c2c1 [Compound 5, N4-(3-(Dimethylamino)propyl)-6-methyl-N2-(4,6,8-trimethylquinazolin-2-yl)pyrimidine-2,4-diamine] | no binding could be observed | No significant change | bind |
| Cc1cc(C)c2nc(Nc3nc(C)cc(C)n3)nc(C)c2c1 [Compound 27, N-(4,6-Dimethylpyrimidin-2-yl)-4,6,8-trimethylquinazolin-2-amine] | no binding could be observed | No significant change | bind |
